11 compounds from PubChem BioAssay (NCI) can be followed below.

Values joined by “and” are separate entries in the source; they are usually repeats but may differ in a detail not shown here. Identical values can stand only once.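 96-well plates; 48 h exposure; 5 concentrations. Endpoints by linear interpolation between flanking doses. Not reached: highest tested concentration assigned. At the GI50, growth is halved. The concentration for full growth arrest is given as TGI.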 A value given as a limit tells only on which side of the number the result lay.

Test systems include A549 NSCLC; CAKI-1 renal; HCC-2998 colon; HCT-15 colon; HS 578T breast; HT29 colon; MDA-MB-435; MDA-N; OVCAR-4 ovarian; OVCAR-5 ovarian; OVCAR-8 ovarian; SF-295 CNS; SN12C renal; UO-31 renal; SR leukemia.
Common to all, as to experiment: DTP human tumour cell line panel, 48 h

For `COc1cc(OC)c2c(=O)c(OC)c(-c3ccc4c(c3)OCO4)oc2c1`, the TGI in the experiment with A549 NSCLC was > 100 µM; with CAKI-1 renal it was 60.5 µM; in the experiment with HCC-2998 colon, > 100 µM; in the experiment on HCT-15 colon, > 100 µM; in the experiment with HS 578T breast it was 97.6 µM; in the experiment on HT29 colon, > 100 µM. In addition, the TGI with MDA-MB-435 is > 100 µM; in the experiment with MDA-N, > 100 µM; in the experiment on OVCAR-4 ovarian, > 100 µM; with OVCAR-5 ovarian, > 100 µM; with OVCAR-8 ovarian, > 100 µM; in the experiment with SF-295 CNS, 61.7 µM. For the same compound, the TGI in the experiment on SN12C renal and in the experiment with UO-31 renal was > 100 µM each time.

As to `O=C1NC2OCC(O)C(O)C2O1` (stereo not drawn), the TGI with A549 NSCLC, in the experiment on CAKI-1 renal, in the experiment with HCC-2998 colon, with HCT-15 colon, with HT29 colon and in the experiment with OVCAR-4 ovarian was > 100 µM throughout. Also, the concentration for total growth inhibition (TGI) with OVCAR-5 ovarian, in the experiment with OVCAR-8 ovarian, in the experiment on SF-295 CNS, with SN12C renal, in the experiment on SR leukemia and in the experiment with UO-31 renal was > 100 µM throughout.

In the case of `C/C(=C1/CCC/C(=C(/C)c2ccccc2)C1=O)c1ccccc1`, the TGI in the experiment with A549 NSCLC was > 100 µM; with HCC-2998 colon, > 100 µM; with HCT-15 colon, > 100 µM; in the experiment with HT29 colon, 86.8 µM; with OVCAR-4 ovarian it was > 100 µM; with OVCAR-5 ovarian, > 100 µM. Also, the TGI in the experiment with OVCAR-8 ovarian is > 100 µM; in the experiment on SF-295 CNS, > 100 µM; in the experiment on SN12C renal, > 100 µM; with SR leukemia, 43.5 µM; in the experiment with UO-31 renal it was > 100 µM.

For `Cc1ccc(S(=O)(=O)OC(c2ccc(Cl)cc2Cl)C2OC(=O)c3ccccc32)cc1` (stereo not drawn), the TGI with A549 NSCLC, in the experiment with HCT-15 colon, in the experiment with HT29 colon, with OVCAR-4 ovarian, in the experiment on OVCAR-5 ovarian and with OVCAR-8 ovarian was > 100 µM each time. Further, the TGI in the experiment with SF-295 CNS was > 100 µM; in the experiment with SN12C renal, > 100 µM; in the experiment on SR leukemia, > 100 µM; in the experiment on UO-31 renal, 95.6 µM.

For the compound `CCOC(=O)C(Cc1cn(S(=O)(=O)c2ccccc2)c2ccccc12)(NC(C)=O)C(=O)OCC`, the TGI in the experiment on A549 NSCLC, in the experiment on CAKI-1 renal, in the experiment with HCC-2998 colon, with HCT-15 colon, in the experiment on HT29 colon and in the experiment on OVCAR-4 ovarian was > 100 µM each time. Also, the TGI was > 100 µM in the experiment on OVCAR-5 ovarian; > 100 µM in the experiment on OVCAR-8 ovarian; > 100 µM in the experiment with SF-295 CNS; 69.8 µM in the experiment on SR leukemia; 55.8 µM in the experiment with UO-31 renal.

Turning to `CCc1c(C)c(C#N)c(=S)n(C2OC(COC(C)=O)C(OC(C)=O)C(OC(C)=O)C2OC(C)=O)c1C` (stereo not drawn), the TGI in the experiment with A549 NSCLC, with CAKI-1 renal, with HCC-2998 colon, in the experiment with HCT-15 colon, in the experiment with HT29 colon and in the experiment on MDA-MB-435 was > 100 µM throughout. Also, the TGI in the experiment with MDA-N, in the experiment on OVCAR-4 ovarian, in the experiment on OVCAR-5 ovarian, with OVCAR-8 ovarian, in the experiment with SF-295 CNS and with SN12C renal was > 100 µM each time. Also, the TGI was > 100 µM in the experiment with SR leukemia; 92.2 µM and 14.5 µM in the experiment on UO-31 renal. The GI50 in the experiment with OVCAR-5 ovarian is > 100 µM and 45.9 µM; in the experiment on SF-295 CNS, > 100 µM and 23 µM; with UO-31 renal, 11 µM and 3.57 µM.

Take `COc1ccc(CNc2nc3cc(C(F)(F)F)ccc3nc2C)cc1OC`: the TGI with A549 NSCLC was > 100 µM; in the experiment on CAKI-1 renal, > 100 µM; in the experiment with HCC-2998 colon, 58.9 µM; in the experiment with HCT-15 colon it was > 100 µM; in the experiment on HT29 colon it was > 100 µM; in the experiment with OVCAR-4 ovarian it was 43.1 µM. Also, the TGI in the experiment with OVCAR-5 ovarian was > 100 µM; in the experiment on OVCAR-8 ovarian it was > 100 µM; in the experiment with SF-295 CNS, > 100 µM; with SN12C renal it was > 100 µM; with UO-31 renal, 65.1 µM.

For `O=C1C=CC=C/C1=C1\N=C(c2ccccc2OCC(=O)c2ccc(Br)cc2)SS1`, the TGI in the experiment with A549 NSCLC was > 100 µM; with CAKI-1 renal, > 100 µM; with HCC-2998 colon, > 100 µM; with HCT-15 colon it was > 100 µM; with HS 578T breast it was 76.2 µM; with HT29 colon, > 100 µM. Besides, the TGI in the experiment with MDA-MB-435, in the experiment with MDA-N, with OVCAR-4 ovarian, with OVCAR-5 ovarian, in the experiment with OVCAR-8 ovarian and in the experiment with SF-295 CNS was > 100 µM in each case. Further, the TGI in the experiment with SN12C renal and in the experiment on UO-31 renal was > 100 µM in each case.

Regarding `COc1ccc(-c2cc(=O)c3ccccc3[nH]2)c(OC)c1`, the TGI in the experiment with A549 NSCLC, in the experiment with HCT-15 colon, in the experiment with HT29 colon, in the experiment on OVCAR-8 ovarian, in the experiment on SF-295 CNS and in the experiment on SN12C renal was > 100 µM throughout. The TGI in the experiment with SR leukemia and in the experiment on UO-31 renal was > 100 µM each time.

Take `CC(C)N1CN(C(C(=O)N[C@@H]2C(=O)N3C2SC(C)(C)C3C(=O)O)c2ccccc2)CSC1=S` (stereo partly drawn): the TGI in the experiment with CAKI-1 renal, in the experiment on HCT-15 colon, with HT29 colon, with OVCAR-4 ovarian, in the experiment on OVCAR-5 ovarian and in the experiment on OVCAR-8 ovarian was > 100 µM each time. The TGI in the experiment on SF-295 CNS, in the experiment with SN12C renal and with UO-31 renal was > 100 µM in each case.

On to `N#Cc1nc(C2=C(Cl)c3ccccc3OC2)[nH]c1C#N`, for which the TGI is > 100 µM in the experiment with A549 NSCLC; > 100 µM with CAKI-1 renal; 61.8 µM in the experiment on HCC-2998 colon; > 100 µM in the experiment with HCT-15 colon; > 100 µM in the experiment on HS 578T breast; 41.5 µM in the experiment on HT29 colon. For the same compound, the TGI is > 100 µM in the experiment on OVCAR-4 ovarian; > 100 µM in the experiment on OVCAR-5 ovarian; > 100 µM in the experiment on OVCAR-8 ovarian; > 100 µM in the experiment on SN12C renal; 59.9 µM with UO-31 renal.
